According to publication PMC10779433, “Bidirectional Allosteric Coupling between PIP2 Binding and the Pore of the Oncochannel TRPV6” (International Journal of Molecular Sciences, 2024):
Residues, ends and D or L forms follow the SMILES beside them. *: point of attachment. Palmitoyl = CCCCCCCCCCCCCCCC(=O)*

System: TRPV6 R470A W583F
Assay: Whole-cell patch clamp, TRPV6 R470A W583F
Format: cell-based, human
Conditions: HEK293 cells; 10 μM pal-PIP2 peptide; Figure 6A; compared with W583F
Text: N-terminally TagRFP-labeled human TRPV6 (725 aa) was kindly provided by R. Bhardwaj and M. Hediger (University of Bern, Bern, Switzerland). This variant is translated from the first ATG codon and thus deviates from the non-ATG-initiated protein which is expressed in vivo (accession number NM_018646.6) by lacking 40 amino acids of the very N-terminus. For N-terminal labeling with EYFP, TRPV6 was cloned into pEYFP-C1 (Clontech) via EcoRI and SacII restriction sites. Mutations (F468A, R470A, F472A, K484A/Q, G488R, R492A/Q, I575A, G579A, D580A/K, H582A, W583A/F, H587A, R589A, W593A, R632A/Q, R470A, W583F) were introduced using the QuickChange XL site-directed mutagenesis kit (Stratagene, San Diego, CA, USA) and Pfu DNA Polymerase (Promega, Madison, WI, USA). pTagRFP-hTRPV6 I575A was kindly provided by the lab of M. Hediger (University of Bern, Bern, Switzerland). Forward and reverse primers for site-directed mutagenesis were synthesized by Eurofins genomics GmbH (Wien, Vienna, Austria). Intactness of the constructs in terms of sequence was confirmed by sequencing (Microsynth Austria GmbH, Wien, Vienna, Austria; Eurofins genomics GmbH, Wien, Vienna, Austria). […]
Electrophysiological experiments were performed at 20 °C to 24 °C in whole-cell recording configurations of the patch clamp technique. […] The liquid junction potential was determined as 12 mV; the voltages were not adjusted. […]

CCCCCCCCCCCCCCCC(=O)N[C@@H](Cc1c[nH]cn1)C(=O)N[C@@H](CCCNC(=N)N)C(=O)N[C@@H](CCC(N)=O)C(=O)N[C@@H](CCCCN)C(=O)N[C@@H](Cc1c[nH]cn1)C(=O)N[C@@H](Cc1ccccc1)C(=O)N[C@@H](CCC(=O)O)C(=O)N[C@@H](CCCCN)C(=O)N[C@@H](CCCNC(=N)N)C(=O)N[C@@H](CCCNC(=N)N)C(N)=O [pal-PIP2 peptide] (Palmitoyl-HRQKHFEKRR-NH2)
resistance to inhibition by pal-PIP2 peptide: regained significant resistance to inhibition
